Reference: patent US20120016011A1, “RNA Interference Mediated Inhibition of Connective Tissue Growth Factor (CTGF) Gene Expression Using Short Interfering Nucleic Acid (siNA)” (Merck Sharp & Dohme Corp., priority 2009, published 2012)
[invAb] = inverted abasic unit; m = 2'-O-methyl; r = 2'-OH (RNA); f = 2'-fluoro

Key:
[1] = test system: α-SMA mRNA; test: Inhibition of α-SMA mRNA induction by TGF-β1 in HLF cells; type: cell-based, human; settings: for Inhibition of upregulation of α-SMA mRNA by TGF-β1: 10 nM siNA, FIG. 12
Procedure: A549 cells (ECACC, 86012804) were maintained in Dulbecco's Modified Eagle Medium (DMEM) containing 10% Fetal Calf Serum (FCS), 2 mM L-glutamine, 100 U/ml penicillin and 100 μg/ml streptomycin (all from GIBCO). Sub-confluent cultures (2.7×10^3 cells/cm^2) were seeded in collagen-coated multi-well plates (Becton Dickenson) and grown for three days. Cells were quiesced using the same medium containing 0.5% FCS, for 24 hours prior to stimulation with cytokines. Cells were incubated with 0-10 ng/ml TGF-(31 for the periods indicated. Normal Human Lung Fibroblasts (HLFs) were obtained from Lonza and maintained in Fibroblast Growth Medium supplemented with growth factors (Lonza #CC-3132); final serum concentration of medium was 2%. HLFs were treated with cytokines in serum-free medium. Normal Human Bronchial Epithelial cells (NHBEs, also obtained from Lonza) were maintained and transfected in Lonza BEBM with SingleQuots (Lonza #CC-3170). All growth factors from the kit were added, except retinoic acid. All cultures were maintained at 37° C. in a humidified incubator with 5% CO2 atmosphere.
Cells were harvested at time points appropriate for the experiment. Supernatants were removed and stored at −70° C. until analysis. Cells were washed using Dulbecco's Phosphate Buffered Saline (DPBS, GIBCO), prior to lysis. RNA lysates for Taqman analysis were produced using Promega RNA lysis buffer. All lysates were stored at −70° C. until use.
Cells were seeded on 96-well tissue culture plates (A549s and NHBEs, collagen-coated plates at densities of 5×10^3 and 1.2×10^4 respectively; HLFs on flat-bottom tissue culture plates, at 1×10^4 cells per well) in 100 μl of growth medium. […] Knockdown is calculated compared to CTGF expression of cells transfected with the universal control siNA.
RNA was isolated using a Biomek 2000 robot and Promega SV 96 Total RNA Isolation kits. cDNA was synthesised using a High Capacity cDNA Reverse Transcription Kit (Applied Biosciences) on a 96-well thermal cycler. […] Plates were analysed using an ABI Taqman RT-PCR machine, and SDS 2.2 Automation Controller software. […]

[2] = test system: collagen secretion (PICP) by HLF cells; test: Pro-collagen Type I C-terminal Pro-peptide (PICP) MSD assay, collagen secretion by HLF cells; type: cell-based, human; settings: TGF-β1 treated, vs universal control siNA, FIG. 13
Procedure: A Pro-collagen Type I C-terminal Pro-peptide (PICP) MSD assay was done on HLF cells transfected with siNAs and treated with TGF-β1. Supernatant from the HLF cells transfected with siNAs and treated with TGF-β1, was removed 72 hours after transfection and 48 hours after treatment. Plates and reagents (except antibodies) were purchased from Meso Scale Discovery. High bind, small spot 96 well MSD plates were spotted with 20 ng/well of the capture antibody (pro-collagen type I C-terminal pro-peptide, human PICP, Caltag Medsystmes) using a TTP LabTech Mosquito. Plates were left to dry for 48 hours before use. The MSD assay was performed as outlined: Plates were blocked with 30 mg/ml Blocker A, sealed and then shook on a plate shaker for 1 hour at RT. Plates were washed 3× with MSD Tris wash buffer. 25 μl of the supernatants were added for 1 hour on a plate shaker, plates were washed as before. The detection antibody (Anti-pro-collagen type I C-terminal pro-peptide, human PICP, Caltag Medsystmes Ltd) was diluted to 800 ng/ml in 10 mg/ml blocker A solution. This antibody had previously been Sulfo-Tagged using Sulfo-Tag NHS Ester (MSD) according to manufacturer's instructions. 25 μl of the diluted sulfo-tagged detection antibody was added, and left as before on a plate shaker for 1 hour. […] 150 μl of 1× Read buffer T was added per well, and the plates read on the MSD sector reader. […]

| Substance | Inhibition of upregulation of α-SMA mRNA by TGF-β1 [1] | α-SMA expression levels relative to untreated cells ([1]; 5 and 10 ng/ml TGF-β1) | Collagen secretion (PICP secretion) induced by TGF-β1 [2] |
| --- | --- | --- | --- |
| 48042-DC: siNA duplex; sense SEQ ID NO: 49 B GAcAuuAAcucAuuAGAcu TTB; antisense SEQ ID NO: 50 AGUcuAAuGAGuuAAuGucUU (sense GACAUUAACUCAUUAGACUTT; antisense AGUCUAAUGAGUUAAUGUCUU; sense: DNA at AGT, 2'-fluoro at CU, [invAb] at 5' end, 3' end, backbone not given here; antisense: sugars from the 5' end rrrffmmfmmmffmmfmffmm, backbone not given here) | significantly inhibited the upregulation of α-SMA | comparable to untreated cells | returned the levels of PICP secretion to near basal levels |
| 48048-DC: siNA duplex; sense SEQ ID NO: 61 B GAuAGcAucuuAuAcGAGu TTB; antisense SEQ ID NO: 62 ACUcGuAuAAGAuGcuAucUU (sense GAUAGCAUCUUAUACGAGUTT; antisense ACUCGUAUAAGAUGCUAUCUU; sense: DNA at AGT, 2'-fluoro at CU, [invAb] at 5' end, 3' end, backbone not given here; antisense: sugars from the 5' end rrrfmfmfmmmmfmffmffmm, backbone not given here) | consistent but not significant knockdown of α-SMA |  | returned the levels of PICP secretion to near basal levels |
